Test results as given in the NIST ThermoML archive (doi:10.1016/j.jct.2014.09.005).

Columns and labels:
[1] = xn = mol fraction of the nth substance listed; conditions: 101 kPa, Liquid; for viscosity: Capillary tube (Ostwald / Ubbelohde) method; for mass density: Vibrating tube method
[2] = refractive index (Na D-line) (dimensionless); xn = mol fraction of the nth substance listed; conditions: 101 kPa, Liquid, Standard Abbe refractometry

NC1CCCCC1 [cyclohexylamine] + CCCCCCCCCCO
Conditions	mass density, [1] [kg/m3]	refractive index, [2]	viscosity, [1] [mPa·s]
293.15 K, x2 = 0.0957	–	1.4563	–
293.15 K, x2 = 0.153	860.33	1.45514	3.133
293.15 K, x2 = 0.1955	–	1.45413	–
293.15 K, x2 = 0.1956	858.62	–	3.48
293.15 K, x2 = 0.2939	855.14	1.45191	4.452
293.15 K, x2 = 0.3417	853.45	1.45101	5.014
293.15 K, x2 = 0.4077	851.25	1.44965	5.81
293.15 K, x2 = 0.4581	849.54	1.44855	6.48
293.15 K, x2 = 0.5059	847.91	1.44765	7.159
293.15 K, x2 = 0.5401	846.76	–	7.628
293.15 K, x2 = 0.6042	844.53	1.44562	8.558
293.15 K, x2 = 0.6538	842.75	1.44463	9.276
293.15 K, x2 = 0.7021	840.98	1.44358	9.963
293.15 K, x2 = 0.8084	837.02	1.44133	11.52
293.15 K, x2 = 0.8868	834.1	1.43957	12.69
298.15 K, x2 = 0.0957	–	1.45392	–
298.15 K, x2 = 0.153	856.19	1.45279	2.749
298.15 K, x2 = 0.1955	–	1.45174	–
298.15 K, x2 = 0.1956	854.54	–	3.049
298.15 K, x2 = 0.2939	851.2	1.44964	3.853
298.15 K, x2 = 0.3417	849.56	1.44874	4.308
298.15 K, x2 = 0.4077	847.42	1.44743	4.923
298.15 K, x2 = 0.4581	845.76	1.44648	5.456
298.15 K, x2 = 0.5059	844.17	1.44554	5.991
298.15 K, x2 = 0.5401	843.04	1.44481	6.38
298.15 K, x2 = 0.6042	840.86	1.44365	7.124
298.15 K, x2 = 0.6538	839.13	1.44254	7.689
298.15 K, x2 = 0.7021	837.39	1.44141	8.24
298.15 K, x2 = 0.8084	833.53	1.43935	9.512
298.15 K, x2 = 0.8868	830.66	1.43762	10.41
303.15 K, x2 = 0.0957	–	1.4514	–
303.15 K, x2 = 0.153	851.99	1.45031	2.406
303.15 K, x2 = 0.1955	–	1.44938	–
303.15 K, x2 = 0.1956	850.41	–	2.663
303.15 K, x2 = 0.2939	847.19	1.44747	3.347
303.15 K, x2 = 0.3417	845.61	1.44642	3.711
303.15 K, x2 = 0.4077	843.53	1.44514	4.216
303.15 K, x2 = 0.4581	841.91	1.44424	4.654
303.15 K, x2 = 0.5059	840.37	1.44335	5.075
303.15 K, x2 = 0.5401	839.27	1.44256	5.393
303.15 K, x2 = 0.6042	837.14	1.44137	5.985
303.15 K, x2 = 0.6538	835.46	1.44039	6.457
303.15 K, x2 = 0.7021	833.76	1.43943	6.893
303.15 K, x2 = 0.8084	829.98	1.43724	7.904
303.15 K, x2 = 0.8868	827.17	1.43565	8.649
